Measured values from patent US20040171489A1, “Synergistic active compound combinations for controlling harmful plants” (priority 1998, published 2004).

What was measured:
[1] = tested on: winter wheat; test: Example 7a field trial, 2-4 leaf stage: crop damage; format: in vivo, Triticum aestivum; settings: 28 days after application
Description: (§1) The herbicidal efficacy of the active compounds or active compound mixtures was scored visually using the treated plots in comparison to untreated control plots. The damage and development of all above-ground parts of the plants were recorded. Scoring was carried out using a percentage scale (100% effect=all plants killed; 50% effect=50% of the plants and the green parts of the plants killed; 0% effect=no noticeable effect=like control plot. The scores of in each case 4 plots were averaged.
(§2) If the observed activity values already exceed the formal sum of the values for the trials with the individual applications, they also exceed the expected value according to Colby which is calculated using the following formula and which is likewise considered to be an indication of synergism (cf. S. R. Colby; in Weeds 15 (1967) p. 20 to 22):
(§3) Crop plants were grown outdoors on plots under natural outdoor conditions, and seeds or rhizome pieces of typical harmful plants were laid out or the natural weed growth was utilized. Treatment with the compositions according to the invention was carried out after the harmful plants had emerged and the crop plants were, generally, at the 2- to 4-leaf stage; in some cases (as stated), application of individual active compounds or active compound combinations was carried out pre-emergence (cf. Section 1) or post-emergence (cf. Section 2) or as a sequential treatment partly pre-emergence and/or post-emergence. After the application, for example 2, 4, 6 and 8 weeks after the application, the effect of the preparations was scored visually by comparison with untreated controls (cf. scoring in Section 1). In the field trial as well, the compositions according to the invention have synergistic herbicidal activity against a broad spectrum of economically important weed grasses and broad-leaved weeds. […] Moreover, the effects in essential phases of the scoring period were above the expected values according to Colby, also indicating synergism. […]

[2] = tested on: winter wheat; test: Example 6 field trial, stage begin of VERPE blossom: crop damage; format: in vivo, Triticum aestivum; settings: 50 g of ai/ha; 28 days after application
Description: as §1, §2
(§4) Crop plants were grown outdoors on plots under natural outdoor conditions, and seeds or rhizome pieces of typical harmful plants were laid out or the natural weed growth was utilized. […] After the application, for example 2, 4, 6 and 8 weeks after the application, the effect of the preparations was scored visually by comparison with untreated controls (cf. scoring in Section 1). […]

[3] = tested on: Stellaria media; test: Example 7b field trial, 2-4 leaf stage: herbicidal effect; format: in vivo; settings: 50 g of ai/ha; 28 days after application
Description: as §1, §2, §4

[4] = tested on: Veronica persicaria; test: Example 6 field trial, stage begin of VERPE blossom: herbicidal effect; format: in vivo; settings: 50 g of ai/ha; 28 days after application
Description: as §1, §2, §4

[5] = tested on: winter wheat; test: Example 7b field trial, 2-4 leaf stage: crop damage; format: in vivo, Triticum aestivum; settings: 50 g of ai/ha; 28 days after application
Description: as §1, §2, §4

[6] = tested on: Chenopodium album; test: Example 7a field trial, 2-4 leaf stage: herbicidal effect; format: in vivo; settings: 28 days after application
Description: as §1, §2, §3

[7] = tested on: winter wheat; test: Example 3 field trial, fall application 2-4 leaf stage: crop damage; format: in vivo, Triticum aestivum; settings: 60 days after application
Description: as §1, §2, §4

[8] = tested on: winter wheat; test: Example 4 field trial, application fall 2-4 leaf stage: crop damage; format: in vivo, Triticum aestivum; settings: 100 g of ai/ha; 60 days after application
Description: as §1, §2, §4

[9] = tested on: winter barley; test: Example 5 field trial, 2-4 leaf stage: crop damage; format: in vivo, Hordeum vulgare; settings: 28 days after application
Description: as §1, §2, §3

[10] = tested on: Viola arvensis; test: Example 3 field trial, fall application 2-4 leaf stage: herbicidal effect; format: in vivo; settings: 60 days after application
Description: as §1, §2, §4

[11] = tested on: Aphanes arvensis; test: Example 4 field trial, application fall 2-4 leaf stage: herbicidal effect; format: in vivo; settings: 100 g of ai/ha; 60 days after application
Description: as §1, §2, §4

[12] = tested on: Veronica hederifolia; test: as above; format: in vivo; settings: 100 g of ai/ha; 60 days after application
Description: as §1, §2, §4

[13] = tested on: Papaver rhoeas; test: Example 1 field trial, 2-4 leaf stage: herbicidal effect; format: in vivo; settings: 28 days after application
Description: as §1, §2
(§5) Crop plants were grown outdoors on plots under natural outdoor conditions, and seeds or rhizome pieces of typical harmful plants were laid out or the natural weed growth was utilized. Treatment with the compositions according to the invention was carried out after the harmful plants had emerged and the crop plants were, generally, at the 2- to 4-leaf stage; in some cases (as stated), application of individual active compounds or active compound combinations was carried out pre-emergence (cf. Section 1) or post-emergence (cf. Section 2) or as a sequential treatment partly pre-emergence and/or post-emergence. After the application, for example 2, 4, 6 and 8 weeks after the application, the effect of the preparations was scored visually by comparison with untreated controls (cf. scoring in Section 1). In the field trial as well, the compositions according to the invention have synergistic herbicidal activity against a broad spectrum of economically important weed grasses and broad-leaved weeds. […] Moreover, the effects in essential phases of the scoring period were above the expected values according to Colby, also indicating synergism. In contrast, the crop plants were, as a consequence of the treatments with the herbicidal compositions, damaged only to a small degree, if at all.

[14] = tested on: winter barley; test: Example 1 field trial, 2-4 leaf stage: crop damage; format: in vivo, Hordeum vulgare; settings: 28 days after application
Description: as §1, §2, §5

[15] = tested on: winter barley; test: Example 2 field trial, fall application 2-4 leaf stage: crop damage; format: in vivo, Hordeum vulgare; settings: 45 days after the application
Description: as §1, §2, §4

[16] = tested on: Papaver rhoeas; test: Example 5 field trial, 2-4 leaf stage: herbicidal effect; format: in vivo; settings: 28 days after application
Description: as §1, §2, §3

[17] = tested on: Papaver rhoeas; test: Example 2 field trial, fall application 2-4 leaf stage: herbicidal effect; format: in vivo; settings: 45 days after the application
Description: as §1, §2, §4

[18] = tested on: winter barley; test: Example 16 field trial, post-emergence, 2- to 3-leaf stage: crop damage; format: in vivo, Hordeum vulgare; settings: in vivo
Description: as §1, §2, §4

[19] = tested on: Viola arvensis; test: Example 16 field trial, post-emergence, 2- to 3-leaf stage: herbicidal effect; format: in vivo; settings: 180 g of ai/ha; 69 days after application
Description: as §1, §2, §5

[20] = tested on: Galium aparine; test: as above; format: in vivo; settings: 180 g of ai/ha; 69 days after application
Description: as §1, §2, §5

[21] = tested on: Anthemis arvensis; test: as above; format: in vivo; settings: 180 g of ai/ha; 69 days after application
Description: as §1, §2, §5

[22] = tested on: Papaver rhoeas; test: as above; format: in vivo; settings: 180 g of ai/ha; 69 days after application
Description: as §1, §2, §5

[23] = tested on: Matricaria chamomilla; test: as above; format: in vivo; settings: 180 g of ai/ha; 69 days after application
Description: as §1, §2, §5

[24] = tested on: Lamium ssp.; test: as above; format: in vivo; settings: 180 g of ai/ha; 69 days after application
Description: as §1, §2, §5

[25] = tested on: Myosotis arvensis; test: as above; format: in vivo; settings: 180 g of ai/ha; 69 days after application
Description: as §1, §2, §5

[26] = tested on: Galium aparine; test: Example 10 pre-emergence application, fall: herbicidal effect; format: in vivo; settings: 180 g of ai/ha; 169 days after application
Excerpt: (§6) Seeds or rhizome pieces of monocotyledonous and dicotyledonous weed plants are placed in sandy loam soil in pots and covered with soil. The compositions, formulated in the form of concentrated aqueous solutions, wettable powders or emulsion concentrates, are then applied to the surface of the soil cover as aqueous solution, suspension or emulsion at an application rate of 600 to 800 l of water/ha (converted), in various dosages. After the treatment, the pots are placed in a greenhouse and kept under good growth conditions for the weeds. After the test plants have emerged, the damage to the plants or the negative effects on the emergence is scored visually after a test period of 3 to 4 weeks by comparison with untreated controls. As shown by the test results, the compositions according to the invention have good herbicidal pre-emergence activity against a broad spectrum of weed grasses and broad-leaved weeds.
as §1, §2, §5

[27] = tested on: winter wheat; test: Example 16 field trial, post-emergence, 2- to 3-leaf stage: crop damage; format: in vivo, Triticum aestivum; settings: in vivo
Description: as §1, §2, §4

[28] = tested on: winter wheat; test: Example 10 pre-emergence application, fall: crop damage; format: in vivo, Triticum aestivum; settings: winter wheat (Triticum aestivum), in vivo, 169 days
Excerpt: as §6, §1, §2, §5

CCC(CCc1ccccc1)Nc1nc(N)nc(C(C)(C)F)n1 (stereo not drawn) [(A3), 4-amino-6-(1-fluoro-1-methylethyl)-2-(3-phenyl-1-ethylpropylamino)-1,3,5-triazine]
damage, TRZAW ([1]; 25 g of ai/ha): 1%
damage, TRZAW ([1]; 50 g of ai/ha): 0%
damage, TRZAW ([1]; 100 g of ai/ha): 10%
damage, TRZAW [2]: 0%
herbicidal effect, STEME [3]: 48%
herbicidal effect, VERPE [4]: 55%
damage, TRZAW [5]: 2%
herbicidal effect, CHEAL ([6]; 25 g of ai/ha): 5%
herbicidal effect, CHEAL ([6]; 50 g of ai/ha): 35%
herbicidal effect, CHEAL ([6]; 100 g of ai/ha): 85%

CC(COc1cccc(Cl)c1)Nc1nc(N)nc(C(C)(C)F)n1 (stereo not drawn) [(A4), 4-amino-6-(1-fluoro-1-methylethyl)-2-[2-(3-chlorophenoxy)-1-methylethyl-amino]-1,3,5-triazine]
damage, TRZAW ([7]; 50 g of ai/ha): 0%
damage, TRZAW ([7]; 100 g of ai/ha): 0%
damage, TRZAW [8]: 0%
damage, HORVW ([9]; 50 g of ai/ha): 0%
damage, HORVW ([9]; 100 g of ai/ha): 0%
herbicidal effect, VIOAR ([10]; 50 g of ai/ha): 78%
herbicidal effect, VIOAR ([10]; 100 g of ai/ha): 88%
herbicidal effect, Aphanes arvensis [11]: 20%
herbicidal effect, Veronica hederifolia [12]: 40%
herbicidal effect, PAPRH ([13]; 25 g of ai/ha): 0%
herbicidal effect, PAPRH ([13]; 50 g of ai/ha): 0%
herbicidal effect, PAPRH ([13]; 100 g of ai/ha): 0%
damage, HORVW ([14]; 25 g of ai/ha): 0%
damage, HORVW ([14]; 50 g of ai/ha): 0%
damage, HORVW ([14]; 100 g of ai/ha): 0%
damage, HORVW ([15]; 50 g of ai/ha): 0%
damage, HORVW ([15]; 100 g of ai/ha): 0%
herbicidal effect, PAPRH ([16]; 50 g of ai/ha): 0%
herbicidal effect, PAPRH ([16]; 100 g of ai/ha): 0%
herbicidal effect, PAPRH ([17]; 50 g of ai/ha): 0%
herbicidal effect, PAPRH ([17]; 100 g of ai/ha): 0%

CC(C)N(C(=O)COc1nnc(C(F)(F)F)s1)c1ccc(F)cc1 [(B1.2.1), fluthiamide, reference compound]
herbicidal effect (%), HORVW (crop) [18]: 0%
herbicidal effect (%), VIOAR [19]: 20%
herbicidal effect (%), GALAP [20]: 68%
herbicidal effect (%), ANTAR [21]: 25%
herbicidal effect (%), PAPRH [22]: 12%
herbicidal effect (%), MATCH [23]: 61%
herbicidal effect (%), LAMSS [24]: 87%
herbicidal effect (%), MYOAR [25]: 16%
herbicidal effect, GALAP [26]: 45%
herbicidal effect (%), TRZAW (crop) [27]: 0%
damage, TRZAW [28]: 2%
